Laboratory results: patent US9637496B2, “Substituted 7-azabicycles and their use as orexin receptor modulators” (priority 2013, dated 2017)
pKi: −log10 of the molar value. Like-named read-outs stand apart in the source and are kept apart here.

Columns and labels:
[1] = biological target: rat orexin 1 receptor (Rattus norvegicus (Rat), UniProt P56718); test: Rat orexin 1 receptor radioligand binding (competitive binding, HEK293 membranes); settings: read-out: rOX1 Ki
[2] = biological target: human orexin 1 receptor (Homo sapiens (Human), UniProt O43613); test: Human orexin 1 receptor radioligand binding (competitive binding, CHO membranes); settings: read-out: hOX1 Ki
[3] = biological target: human orexin 2 receptor (Homo sapiens (Human), UniProt O43614); test: Human orexin 2 receptor radioligand binding ([3H]-EMPA competition, HEK293 membranes); settings: read-out: hOX2 Ki
[4] = rat orexin 1 receptor, Table 2, averages from between 2-20 runs
[5] = human orexin 1 receptor, Table 2, averages from between 2-20 runs
[6] = human orexin 2 receptor, Table 2, averages from between 2-20 runs
[7] = Table 2, further testing, averages from 2-20 runs

Chain of rat orexin 1 receptor (P56718 whole entry): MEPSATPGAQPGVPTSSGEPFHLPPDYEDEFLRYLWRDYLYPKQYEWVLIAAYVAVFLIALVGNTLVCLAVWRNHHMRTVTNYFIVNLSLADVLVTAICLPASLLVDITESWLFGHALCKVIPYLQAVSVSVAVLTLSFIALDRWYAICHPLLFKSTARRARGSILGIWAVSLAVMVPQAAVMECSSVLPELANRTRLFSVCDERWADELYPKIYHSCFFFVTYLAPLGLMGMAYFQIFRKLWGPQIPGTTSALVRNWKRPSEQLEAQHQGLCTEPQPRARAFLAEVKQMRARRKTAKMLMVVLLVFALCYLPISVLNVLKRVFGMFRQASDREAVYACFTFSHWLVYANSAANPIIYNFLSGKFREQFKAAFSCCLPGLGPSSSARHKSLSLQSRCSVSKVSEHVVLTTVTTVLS
Chain of human orexin 2 receptor (O43614 whole entry): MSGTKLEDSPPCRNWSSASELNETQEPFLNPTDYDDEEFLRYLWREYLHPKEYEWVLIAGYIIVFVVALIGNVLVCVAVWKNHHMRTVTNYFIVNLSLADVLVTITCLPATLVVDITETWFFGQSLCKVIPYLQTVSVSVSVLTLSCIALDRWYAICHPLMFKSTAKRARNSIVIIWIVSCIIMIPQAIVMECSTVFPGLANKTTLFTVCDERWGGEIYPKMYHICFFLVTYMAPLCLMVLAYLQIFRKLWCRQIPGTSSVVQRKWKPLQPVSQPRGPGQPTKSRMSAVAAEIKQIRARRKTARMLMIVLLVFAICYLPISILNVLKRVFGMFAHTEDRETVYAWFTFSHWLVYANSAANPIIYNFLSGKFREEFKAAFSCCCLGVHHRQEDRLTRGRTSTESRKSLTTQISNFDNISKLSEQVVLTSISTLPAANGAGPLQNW
Chain of human orexin 1 receptor (O43613 whole entry): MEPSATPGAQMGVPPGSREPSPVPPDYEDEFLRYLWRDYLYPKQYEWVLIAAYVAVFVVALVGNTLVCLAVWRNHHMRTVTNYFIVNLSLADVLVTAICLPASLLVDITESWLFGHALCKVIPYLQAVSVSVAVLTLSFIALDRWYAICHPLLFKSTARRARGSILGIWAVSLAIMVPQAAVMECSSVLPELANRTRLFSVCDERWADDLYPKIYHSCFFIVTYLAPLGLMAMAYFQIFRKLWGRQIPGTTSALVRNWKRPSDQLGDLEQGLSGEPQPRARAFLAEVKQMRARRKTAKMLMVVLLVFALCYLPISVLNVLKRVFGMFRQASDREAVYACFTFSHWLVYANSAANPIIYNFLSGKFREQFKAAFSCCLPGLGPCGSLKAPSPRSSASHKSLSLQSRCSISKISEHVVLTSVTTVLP

Row | Compound | pKi [1, 4] | pKi [2] | pKi [2, 5] | pKi [3, 6] | pKi [1] | also measured
1 | O=C(c1cc(F)ccc1-c1ncccn1)N1[C@@H]2CC[C@H]1[C@H](Nc1ncc(C(F)(F)F)cn1)C2 [Example 415, (5-fluoro-2-(pyrimidin-2-yl)phenyl)((1S,2R,4R)-2-((5-(trifluoromethyl)pyrimidin-2-yl)amino)-7-azabicyclo[2.2.1]heptan-7-yl)methanone] | 6.99 | 7.15 | – | – | – | pKi [3]: 5.68
2 | O=C(c1ccc(F)cc1-c1ncccn1)N1[C@@H]2CC[C@H]1[C@H](Nc1ncc(C(F)(F)F)cn1)C2 [Example 414, (4-fluoro-2-(pyrimidin-2-yl)phenyl)((1S,2R,4R)-2-((5-(trifluoromethyl)pyrimidin-2-yl)amino)-7-azabicyclo[2.2.1]heptan-7-yl)methanone] | 6.80 | – | 7.09 | 5.24 | – | –
3 | O=C(c1cccc(F)c1-c1ncccn1)N1[C@@H]2CC[C@H]1[C@H](Nc1ncc(Br)cn1)C2 [Example 315, ((1S,2R,4R)-2-((5-bromopyrimidin-2-yl)amino)-7-azabicyclo[2.2.1]heptan-7-yl)(3-fluoro-2-(pyrimidin-2-yl)phenyl)methanone] | 7.52 | – | 7.28 | 5.73 | – | –
4 | O=C(c1cccc(F)c1-c1ncc(F)cn1)N1[C@@H]2CC[C@H]1[C@H](Nc1ncc(C(F)(F)F)cc1F)C2 [Example 463, (3-fluoro-2-(5-fluoropyrimidin-2-yl)phenyl)((1S,2R,4R)-2-((3-fluoro-5-(trifluoromethyl)pyridin-2-yl)amino)-7-azabicyclo[2.2.1]heptan-7-yl)methanone] | – | 7.30 | – | – | 7.28 | pKi [3, 7]: 5.72
5 | Cc1ccc(C(=O)N2[C@@H]3CC[C@H]2[C@H](Nc2ncc(C(F)(F)F)cc2F)C3)c(-n2nccn2)n1 [Example 452, ((1S,2R,4R)-2-((3-fluoro-5-(trifluoromethyl)pyridin-2-yl)amino)-7-azabicyclo[2.2.1]heptan-7-yl)(6-methyl-2-(2H-1,2,3-triazol-2-yl)pyridin-3-yl)methanone] | – | – | – | – | – | pKi [1, 7]: 6.75; pKi [2, 7]: 6.65; pKi [3, 7]: 6.36
6 | O=C(c1ncccc1-c1ncccn1)N1[C@@H]2CC[C@H]1[C@H](Nc1cnc(C(F)(F)F)cn1)C2 [Example 406, (3-(pyrimidin-2-yl)pyridin-2-yl)((1S,2R,4R)-2-((5-(trifluoromethyl)pyrazin-2-yl)amino)-7-azabicyclo[2.2.1]heptan-7-yl)methanone] | 7.23 | – | 7.36 | 6.01 | – | –
7 | O=C(c1ccccc1-c1ncc(F)cn1)N1[C@@H]2CC[C@H]1[C@H](Nc1ccc(C(F)(F)F)cn1)C2 [Example 374, (2-(5-fluoropyrimidin-2-yl)phenyl)((1S,2R,4R)-2-((5-(trifluoromethyl)pyridin-2-yl)amino)-7-azabicyclo[2.2.1]heptan-7-yl)methanone] | – | 7.51 | – | 6.04 | 7.39 | –
8 | O=C(c1ccccc1-c1ncccn1)N1C2CCC1C(Oc1ccc(C(F)(F)F)cn1)C2 (racemic) [Example 432] | 6.83 | – | 6.51 | 5.22 | – | –
9 | O=C(c1ccccc1-c1ccccc1)N1[C@@H]2CC[C@H]1[C@H](Nc1cnc(C(F)(F)F)cn1)C2 [Example 407, [1,1′-biphenyl]-2-yl((1S,2R,4R)-2-((5-(trifluoromethyl)pyrazin-2-yl)amino)-7-azabicyclo[2.2.1]heptan-7-yl)methanone] | – | 7.77 | – | 6.98 | 7.74 | –
10 | O=C(c1cccc(F)c1-c1ncccn1)N1C2CCC1C(Nc1ccc(Br)cn1)C2 [Example 303, ((1S,2R,4R)-2-((5-bromopyridin-2-yl)amino)-7-azabicyclo[2.2.]heptan-7-yl)(3-fluoro-2-(pyrimidin-2-yl)phenyl)methanone] | – | 7.80 | – | 5.89 | 7.66 | –
